# Tests used:
# [1] = tested on: subcutaneous PC-3 xenografts; experiment: Biodistribution, perfusion tracer, subcutaneous PC-3 xenograft model; type: in vivo; conditions: 5 min p.i., mean ± SD
# Procedure: (§1) For the subcutaneous model, 5-week old female SCID mice were inoculated in the flanks with 5 × 10^6 PC-3 cells (American Type Culture Collection (ATCC), VA) in Matrigel®. The tumor size was monitored by caliper. For the generation of the orthotopic model, the PC-3-Luc cells were selected by 0.5 µg/mL puromycin twice before inoculation. The male 6-weeks SCID mice were anesthetized, the muscles of the abdomen area were cut after retracting the skin, and the prostate gland exposed. 50 μL of PC-3-Luc cell suspension at 0.5 × 10^6/mL in Matrigel® was injected into a dorsal prostatic lobe. The wound was closed in two layers and the skin was clipped. Animals were given analgesic drugs for 3 days and the tumors were monitored by an IVIS optical imaging system.
# (§2) The mice were injected, monitored and dissected in the lab with the temperature of 23 °C and 17% relative humidity. All animals were awake until sacrifice. The body weight, tumor volume and tumor luminescence of the mice were recorded every three days. At four-to-seven weeks post-xenograft implantation, the mice were divided into three groups by tumor volume: <300, 300–700 and >700 mm^3 in both animal models. […] Each mouse (average weight: 20 g for female mice and 25 g for male mice) was treated with pimonidazole solution (80 mg/kg in PBS) via intraperitoneal injection. […] After an additional 1 h, the mice were injected intravenously with a PBS solution containing 10 µCi (370 kBq) of [^99mTc]NaTcO4 and 15 mg/kg Hoechst 33342. The animals were sacrificed 5 minutes later, and their tissues collected. The excised tissues were weighed, the radioactivity for each tissue was measured by γ-counter and the percentage injected dose per gram (%ID/g) was calculated for each tissue. […]
# The normal PC-3 cells and PC-3-Luc were cultured in our laboratory, as per ATCC protocols, in Ham’s F-12K medium
# containing 10% FBS, 2.5 mM L-glutamine, 15 mM HEPES and 0.5 mM sodium pyruvate. Cells were incubated at 37 °C
# (§3) All animal experiments were performed in accordance with the NIH animal use guideline and protocol approved by the […]
# [2] = tested on: orthotopic PC-3 xenografts; experiment: Biodistribution, perfusion tracer, orthotopic PC-3 xenograft model; type: in vivo; conditions: for blood uptake / bone uptake / brain uptake / excretion (urine and fecal material) / heart uptake / kidney uptake / large intestine uptake / liver uptake / lung uptake / muscle uptake / pancreas uptake / small intestine uptake / spleen uptake / stomach uptake / tumor uptake (perfusion): orthotopic model, 10 µCi i.v., 5 min p.i., mean ± SD
# Procedure: as §1, §2
# Establishment of Stably Transfected PC-3-Luc Cells
# To generate the PC-3-Luc cells, we utilized pre-made lentivirus particles encoding luciferase and GFP (EF1a-Luciferase (firefly)-2A-GFP (Puro), AMSBIO) for transfection. Briefly, normal PC-3 cells were seeded in a 24-well plate using 0.5 mL of medium containing 0.5 × 10^5 cells/mL and incubated overnight. The medium was removed and replaced with 0.5 mL of fresh medium pre-mixed with 2.5 ȝL TransduxTM. To each well was added 2 ȝL of the lentivirus particle solution and swirled to mix. The plate was returned to the incubator and cultured for 3 days. Once the cells grew to confluence, they were harvested and transferred to larger plates (from 6-well plates to 60 mm dishes). 1.5 mL of suspended cells in PBS at a concentration of 5 × 10^6/mL was sorted by the FACS method to give the GFP positive (PC-3-Luc) cells that were returned to culture for in vitro and in vivo studies.
# The normal PC-3 cells and PC-3-Luc were cultured in our laboratory, as per ATCC protocols, in Ham’s F-12K medium containing 10% FBS, 2.5 mM L-glutamine, 15 mM HEPES and 0.5 mM sodium pyruvate. Cells were incubated at 37 °C […]
# as §3
# [3] = tumor volume 300-700 mm^3, 10 µCi i.v.
# [4] = tumor volume <300 mm^3, 10 µCi i.v.
# [5] = tumor volume >700 mm^3, 10 µCi i.v.
smiles,measurement,setting,value
"[Na+].[O]=[Tc](=[O])(=[O])[O-] [[^99mTc]TcO4^−, sodium pertechnetate]",blood uptake,[1]; [3],0.88 ± 0.34 %ID/g
same,bone uptake,[1]; [3],0.16 ± 0.06 %ID/g
same,brain uptake,[1]; [3],0.03 ± 0.02 %ID/g
same,excretion (urine and fecal material),[1]; [3],85.78 ± 9.65 %ID
same,heart uptake,[1]; [3],0.22 ± 0.11 %ID/g
same,kidney uptake,[1]; [3],0.53 ± 0.19 %ID/g
same,large intestine uptake,[1]; [3],0.43 ± 0.47 %ID/g
same,liver uptake,[1]; [3],0.41 ± 0.19 %ID/g
same,lung uptake,[1]; [3],0.49 ± 0.21 %ID/g
same,muscle uptake,[1]; [3],0.11 ± 0.04 %ID/g
same,pancreas uptake,[1]; [3],3.30 ± 2.30 %ID/g
same,small intestine uptake,[1]; [3],0.61 ± 0.43 %ID/g
same,spleen uptake,[1]; [3],0.87 ± 0.74 %ID/g
same,stomach uptake,[1]; [3],2.41 ± 1.25 %ID/g
same,tumor uptake (perfusion),[1]; [3],0.68 ± 0.49 %ID/g
same,blood uptake,[1]; [4],1.01 ± 0.06 %ID/g
same,bone uptake,[1]; [4],0.34 ± 0.27 %ID/g
same,brain uptake,[1]; [4],0.06 ± 0.04 %ID/g
same,excretion (urine and fecal material),[1]; [4],83.64 ± 9.63 %ID
same,heart uptake,[1]; [4],0.40 ± 0.24 %ID/g
same,kidney uptake,[1]; [4],0.66 ± 0.33 %ID/g
same,large intestine uptake,[1]; [4],0.44 ± 0.35 %ID/g
same,liver uptake,[1]; [4],0.67 ± 0.43 %ID/g
same,lung uptake,[1]; [4],0.74 ± 0.27 %ID/g
same,muscle uptake,[1]; [4],0.19 ± 0.11 %ID/g
same,pancreas uptake,[1]; [4],2.26 ± 1.95 %ID/g
same,small intestine uptake,[1]; [4],0.52 ± 0.38 %ID/g
same,spleen uptake,[1]; [4],1.35 ± 1.21 %ID/g
same,stomach uptake,[1]; [4],2.26 ± 1.06 %ID/g
same,tumor uptake (perfusion),[1]; [4],0.51 ± 0.31 %ID/g
same,blood uptake,[1]; [5],2.61 ± 1.54 %ID/g
same,bone uptake,[1]; [5],0.34 ± 0.31 %ID/g
same,brain uptake,[1]; [5],0.06 ± 0.05 %ID/g
same,excretion (urine and fecal material),[1]; [5],82.76 ± 12.78 %ID
same,heart uptake,[1]; [5],0.43 ± 0.38 %ID/g
same,kidney uptake,[1]; [5],1.11 ± 0.92 %ID/g
same,large intestine uptake,[1]; [5],0.53 ± 0.53 %ID/g
same,liver uptake,[1]; [5],0.85 ± 0.77 %ID/g
same,lung uptake,[1]; [5],1.24 ± 1.00 %ID/g
same,muscle uptake,[1]; [5],0.21 ± 0.20 %ID/g
same,pancreas uptake,[1]; [5],6.22 ± 6.53 %ID/g
same,small intestine uptake,[1]; [5],0.53 ± 0.43 %ID/g
same,spleen uptake,[1]; [5],0.43 ± 0.51 %ID/g
same,stomach uptake,[1]; [5],3.03 ± 2.52 %ID/g
same,tumor uptake (perfusion),[1]; [5],0.86 ± 0.37 %ID/g
same,tumor uptake (perfusion),"[1]; tumor volume >700 mm^3, 10 µCi i.v., listed as [99mTc]TcO4-",0.86 ± 0.35 %ID/g
same,"stomach uptake, orthotopic versus subcutaneous model",[2]; Table S1,approximately 8 fold
same,"tumor perfusion, orthotopic versus subcutaneous model",[2]; across tumor volume groups,3.7–4.3 fold
same,blood uptake,[2]; tumor volume 300-700 mm^3,3.51 ± 1.28 %ID/g
same,bone uptake,[2]; tumor volume 300-700 mm^3,1.27 ± 0.68 %ID/g
same,brain uptake,[2]; tumor volume 300-700 mm^3,0.18 ± 0.18 %ID/g
same,excretion (urine and fecal material),[2]; tumor volume 300-700 mm^3,37.55 ± 14.08 %ID
same,heart uptake,[2]; tumor volume 300-700 mm^3,1.20 ± 0.63 %ID/g
same,kidney uptake,[2]; tumor volume 300-700 mm^3,2.25 ± 2.25 %ID/g
same,large intestine uptake,[2]; tumor volume 300-700 mm^3,2.24 ± 0.57 %ID/g
same,liver uptake,[2]; tumor volume 300-700 mm^3,2.92 ± 0.95 %ID/g
same,lung uptake,[2]; tumor volume 300-700 mm^3,2.78 ± 1.27 %ID/g
same,muscle uptake,[2]; tumor volume 300-700 mm^3,0.59 ± 0.18 %ID/g
same,pancreas uptake,[2]; tumor volume 300-700 mm^3,5.17 ± 5.32 %ID/g
same,small intestine uptake,[2]; tumor volume 300-700 mm^3,1.36 ± 0.45 %ID/g
same,spleen uptake,[2]; tumor volume 300-700 mm^3,1.70 ± 1.20 %ID/g
same,stomach uptake,[2]; tumor volume 300-700 mm^3,19.15 ± 6.40 %ID/g
same,tumor uptake (perfusion),[2]; tumor volume 300-700 mm^3,2.94 ± 0.76 %ID/g
same,blood uptake,[2]; tumor volume <300 mm^3,3.13 ± 1.02 %ID/g
same,bone uptake,[2]; tumor volume <300 mm^3,1.10 ± 0.73 %ID/g
same,brain uptake,[2]; tumor volume <300 mm^3,0.14 ± 0.04 %ID/g
same,excretion (urine and fecal material),[2]; tumor volume <300 mm^3,39.51 ± 22.40 %ID
same,heart uptake,[2]; tumor volume <300 mm^3,1.29 ± 0.61 %ID/g
same,kidney uptake,[2]; tumor volume <300 mm^3,1.85 ± 0.91 %ID/g
same,large intestine uptake,[2]; tumor volume <300 mm^3,1.52 ± 0.36 %ID/g
same,liver uptake,[2]; tumor volume <300 mm^3,2.51 ± 0.73 %ID/g
same,lung uptake,[2]; tumor volume <300 mm^3,2.86 ± 1.06 %ID/g
same,muscle uptake,[2]; tumor volume <300 mm^3,0.47 ± 0.20 %ID/g
same,pancreas uptake,[2]; tumor volume <300 mm^3,4.94 ± 4.84 %ID/g
same,small intestine uptake,[2]; tumor volume <300 mm^3,1.31 ± 0.31 %ID/g
same,spleen uptake,[2]; tumor volume <300 mm^3,2.84 ± 1.87 %ID/g
same,stomach uptake,[2]; tumor volume <300 mm^3,16.33 ± 4.08 %ID/g
same,tumor uptake (perfusion),[2]; tumor volume <300 mm^3,2.23 ± 1.09 %ID/g
same,blood uptake,[2]; tumor volume >700 mm^3,3.96 ± 0.90 %ID/g
same,bone uptake,[2]; tumor volume >700 mm^3,0.85 ± 0.49 %ID/g
same,brain uptake,[2]; tumor volume >700 mm^3,0.16 ± 0.07 %ID/g
same,excretion (urine and fecal material),[2]; tumor volume >700 mm^3,46.43 ± 13.26 %ID
same,heart uptake,[2]; tumor volume >700 mm^3,1.79 ± 0.87 %ID/g
same,kidney uptake,[2]; tumor volume >700 mm^3,1.45 ± 0.64 %ID/g
same,large intestine uptake,[2]; tumor volume >700 mm^3,2.14 ± 0.55 %ID/g
same,liver uptake,[2]; tumor volume >700 mm^3,3.02 ± 0.77 %ID/g
same,lung uptake,[2]; tumor volume >700 mm^3,3.34 ± 0.84 %ID/g
same,muscle uptake,[2]; tumor volume >700 mm^3,0.63 ± 0.24 %ID/g
same,pancreas uptake,[2]; tumor volume >700 mm^3,4.03 ± 3.24 %ID/g
same,small intestine uptake,[2]; tumor volume >700 mm^3,1.32 ± 0.78 %ID/g
same,spleen uptake,[2]; tumor volume >700 mm^3,1.80 ± 1.37 %ID/g
same,stomach uptake,[2]; tumor volume >700 mm^3,15.44 ± 3.98 %ID/g
same,tumor uptake (perfusion),[2]; tumor volume >700 mm^3,3.19 ± 0.66 %ID/g
same,"average tumor uptake of perfusion tracer, orthotopic versus subcutaneous model","[2]; tumor volume 300–700 mm^3, p = 0.0001",4.3 fold
same,"average tumor uptake of perfusion tracer, orthotopic versus subcutaneous model","[2]; tumor volume <300 mm^3, p = 0.0008",4.1 fold
same,"average tumor uptake of perfusion tracer, orthotopic versus subcutaneous model","[2]; tumor volume >700 mm^3, p = 0.0001",3.7 fold

# Reference: paper PMC6668441, “Comparative Study of Subcutaneous and Orthotopic Mouse Models of Prostate Cancer: Vascular Perfusion, Vasculature Density, Hypoxic Burden and BB2r-Targeting Efficacy” (Scientific Reports, 2019)
